# Experimental data from publication doi:10.1101/2024.06.17.599304v1, “Dizocilpine derivatives with neuroprotective effect lacking the psychomimetic side effects” (biorxiv, 2024).
# Where a name gives a salt, the structure may show the parent alone. Read-outs that look alike come from different tables or passages of the source.
# Columns and labels:
# [1] = target: T1, human plasmatic butyrylcholinesterase (hBChE) (Homo sapiens, UniProt P06276); assay: biochemical
# T1 construct: gene BCHE
# hGluN1/hGluN2B [2] = target: T2, hGluN1/hGluN2B (Homo sapiens, UniProt Q05586+Q13224); assay: cell-based; design: gene GRIN1; cDNA vectors for human GluN1-1a and GluN2B co-transfected with GFP in HEK293 cells; diheteromeric receptor; whole-cell voltage-clamp electrophysiology, inhibition of steady-state L-glutamate-induced currents at -60 mV; conditions: HEK293; -60 mV, 1 mM L-glutamate
# Procedure: (§1) First, we determined the relative inhibition of all novel compounds on the two major diheteromeric NMDA receptor subtypes in the adult cortex – GluN1/GluN2A and GluN1/GluN2B [1] – using a clinically relevant concentration (3 µM). We kept the measured cells at a membrane potential of -60 mV, and the values of relative inhibition by the compounds were calculated from the L-glutamate-induced responses of human versions of the GluN1/GluN2A (hGluN1/hGluN2A) and GluN1/GluN2B (hGluN1/hGluN2B) receptors obtained under steady-state conditions. […] Specifically, in the case of hGluN1/hGluN2A receptors, we obtained relative inhibition values ranging from ∼5% for compound 3h to ∼93% for compound 6f, while for hGluN1/hGluN2B receptors, we measured values ranging from ∼3% for compound 3i to ∼92% for compound 6g at a fixed dose of 3 µM of the tested compound. […] It can be assumed that the positive and negative effects of a given inhibitor of the NMDA receptor in vivo are caused by their affinity and the kinetics of inhibition, in addition to their availability in the CNS. […] In further experiments, we generated concentration-response curves for 6f (0.03-10 µM) and 3l (0.3-300 µM) on both hGluN1/hGluN2A and hGluN1/hGluN2B receptors at negative (-60 mV) and positive (40 mV) membrane potentials (Fig. 2A-D). […] (A, C) Representative whole-cell voltage-clamp recordings of HEK293 cells expressing hGluN1/hGluN2A or hGluN1/hGluN2B receptors showing the inhibitory effects of compound 6f (0.03 - 300 µM) and compound 3l (0.3 - 300 µM) at membrane potentials of 40 mV (A) and -60 mV (C). Glu = 1 mM L-glutamate. (B, D) Normalized inhibitory concentration-response curves for compound 6f and compound 3l for hGluN1/hGluN2A and hGluN1/hGluN2B receptors at membrane potentials of 40 mV (B) and -60 mV (D). Concentration-response curves were fitted using Equation 1; the resulting IC50 values, Hill coefficients, and the numbers of cells measured for each membrane potential are shown in Table 3.
# [3] = target: T3, human recombinant AChE (hAChE) (Homo sapiens, UniProt P22303); assay: modified Ellman's method; format: biochemical
# T3 construct: recombinant enzyme purchased from Merck
# hGluN1/hGluN2A [4] = target: T4, hGluN1/hGluN2A (Homo sapiens, UniProt Q05586+Q12879); design: gene GRIN1; conditions: -60 mV; 1 mM L-glutamate, 100 µM glycine; pH 7.3
# hGluN1/hGluN2A [5] = target: T4, hGluN1/hGluN2A; assay: cell-based; design: gene GRIN1; cDNA vectors for human GluN1-1a and GluN2A co-transfected with GFP in HEK293 cells; diheteromeric receptor; whole-cell voltage-clamp electrophysiology, inhibition of steady-state L-glutamate-induced currents at -60 mV; conditions: HEK293; -60 mV, 1 mM L-glutamate
# Procedure: as §1
# hGluN1/hGluN2B [6] = target: T2, hGluN1/hGluN2B; design: gene GRIN1; conditions: -60 mV; 1 mM L-glutamate, 100 µM glycine; pH 7.3
# hGluN1/hGluN2A [7] = target: T4, hGluN1/hGluN2A; assay: whole-cell patch clamp, HEK293; format: cell-based; design: gene GRIN1; cDNA vectors for human GluN1-1a and GluN2A co-transfected with GFP in HEK293 cells; diheteromeric receptor; conditions: -60 mV; 1 mM L-glutamate, 100 µM glycine; pH 7.3; voltage-dependent block
# From the text: whole-cell patch clamp, HEK293 on hGluN1/hGluN2A
# hGluN1/hGluN2B [8] = target: T2, hGluN1/hGluN2B; assay: whole-cell patch clamp, HEK293; format: cell-based; design: gene GRIN1; cDNA vectors for human GluN1-1a and GluN2B co-transfected with GFP in HEK293 cells; diheteromeric receptor; conditions: -60 mV; 1 mM L-glutamate, 100 µM glycine; pH 7.3; voltage-dependent block
# From the text: whole-cell patch clamp, HEK293 on hGluN1/hGluN2B
# [9] = target: T1, human plasmatic butyrylcholinesterase (hBChE)
# T2 sequence (Q13224 27-1484, other chains not shown): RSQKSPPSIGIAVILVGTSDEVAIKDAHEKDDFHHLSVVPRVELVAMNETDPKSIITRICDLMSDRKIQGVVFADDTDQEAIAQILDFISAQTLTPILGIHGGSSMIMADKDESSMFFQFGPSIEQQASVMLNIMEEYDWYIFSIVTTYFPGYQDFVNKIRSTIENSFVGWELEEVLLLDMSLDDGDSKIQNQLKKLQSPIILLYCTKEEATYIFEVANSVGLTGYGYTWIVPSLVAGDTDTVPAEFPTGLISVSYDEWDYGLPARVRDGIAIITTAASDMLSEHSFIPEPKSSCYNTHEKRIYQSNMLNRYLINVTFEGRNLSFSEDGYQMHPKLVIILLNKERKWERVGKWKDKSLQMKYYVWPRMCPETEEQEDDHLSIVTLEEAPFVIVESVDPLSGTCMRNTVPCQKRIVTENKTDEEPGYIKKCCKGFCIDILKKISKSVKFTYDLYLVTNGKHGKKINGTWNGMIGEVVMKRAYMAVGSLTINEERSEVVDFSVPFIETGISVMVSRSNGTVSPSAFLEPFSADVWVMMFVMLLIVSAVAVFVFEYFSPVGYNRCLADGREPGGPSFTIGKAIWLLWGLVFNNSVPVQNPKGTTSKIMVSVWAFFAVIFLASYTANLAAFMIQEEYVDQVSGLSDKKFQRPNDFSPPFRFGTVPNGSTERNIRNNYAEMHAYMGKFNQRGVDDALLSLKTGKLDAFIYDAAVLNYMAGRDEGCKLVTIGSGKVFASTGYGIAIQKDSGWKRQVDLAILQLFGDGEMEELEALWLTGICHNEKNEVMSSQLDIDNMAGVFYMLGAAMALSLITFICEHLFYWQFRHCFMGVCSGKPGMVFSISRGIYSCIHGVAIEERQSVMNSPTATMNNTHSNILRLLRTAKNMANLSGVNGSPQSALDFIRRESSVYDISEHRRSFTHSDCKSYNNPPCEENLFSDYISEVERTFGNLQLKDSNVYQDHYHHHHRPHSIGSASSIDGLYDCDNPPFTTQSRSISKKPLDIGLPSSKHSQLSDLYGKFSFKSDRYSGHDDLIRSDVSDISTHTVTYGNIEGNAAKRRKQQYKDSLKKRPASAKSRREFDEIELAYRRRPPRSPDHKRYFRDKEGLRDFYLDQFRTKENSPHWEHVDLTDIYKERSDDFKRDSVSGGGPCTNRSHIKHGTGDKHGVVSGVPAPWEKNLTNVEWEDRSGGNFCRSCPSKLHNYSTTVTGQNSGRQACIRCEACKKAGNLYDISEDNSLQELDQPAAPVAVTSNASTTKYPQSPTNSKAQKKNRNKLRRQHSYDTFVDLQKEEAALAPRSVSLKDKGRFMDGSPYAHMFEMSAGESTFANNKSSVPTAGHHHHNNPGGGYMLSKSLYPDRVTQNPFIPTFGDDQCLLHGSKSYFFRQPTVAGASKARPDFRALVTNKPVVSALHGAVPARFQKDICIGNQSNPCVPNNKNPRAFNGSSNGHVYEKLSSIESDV
# T4 sequence (Q12879 23-1464, other chains not shown): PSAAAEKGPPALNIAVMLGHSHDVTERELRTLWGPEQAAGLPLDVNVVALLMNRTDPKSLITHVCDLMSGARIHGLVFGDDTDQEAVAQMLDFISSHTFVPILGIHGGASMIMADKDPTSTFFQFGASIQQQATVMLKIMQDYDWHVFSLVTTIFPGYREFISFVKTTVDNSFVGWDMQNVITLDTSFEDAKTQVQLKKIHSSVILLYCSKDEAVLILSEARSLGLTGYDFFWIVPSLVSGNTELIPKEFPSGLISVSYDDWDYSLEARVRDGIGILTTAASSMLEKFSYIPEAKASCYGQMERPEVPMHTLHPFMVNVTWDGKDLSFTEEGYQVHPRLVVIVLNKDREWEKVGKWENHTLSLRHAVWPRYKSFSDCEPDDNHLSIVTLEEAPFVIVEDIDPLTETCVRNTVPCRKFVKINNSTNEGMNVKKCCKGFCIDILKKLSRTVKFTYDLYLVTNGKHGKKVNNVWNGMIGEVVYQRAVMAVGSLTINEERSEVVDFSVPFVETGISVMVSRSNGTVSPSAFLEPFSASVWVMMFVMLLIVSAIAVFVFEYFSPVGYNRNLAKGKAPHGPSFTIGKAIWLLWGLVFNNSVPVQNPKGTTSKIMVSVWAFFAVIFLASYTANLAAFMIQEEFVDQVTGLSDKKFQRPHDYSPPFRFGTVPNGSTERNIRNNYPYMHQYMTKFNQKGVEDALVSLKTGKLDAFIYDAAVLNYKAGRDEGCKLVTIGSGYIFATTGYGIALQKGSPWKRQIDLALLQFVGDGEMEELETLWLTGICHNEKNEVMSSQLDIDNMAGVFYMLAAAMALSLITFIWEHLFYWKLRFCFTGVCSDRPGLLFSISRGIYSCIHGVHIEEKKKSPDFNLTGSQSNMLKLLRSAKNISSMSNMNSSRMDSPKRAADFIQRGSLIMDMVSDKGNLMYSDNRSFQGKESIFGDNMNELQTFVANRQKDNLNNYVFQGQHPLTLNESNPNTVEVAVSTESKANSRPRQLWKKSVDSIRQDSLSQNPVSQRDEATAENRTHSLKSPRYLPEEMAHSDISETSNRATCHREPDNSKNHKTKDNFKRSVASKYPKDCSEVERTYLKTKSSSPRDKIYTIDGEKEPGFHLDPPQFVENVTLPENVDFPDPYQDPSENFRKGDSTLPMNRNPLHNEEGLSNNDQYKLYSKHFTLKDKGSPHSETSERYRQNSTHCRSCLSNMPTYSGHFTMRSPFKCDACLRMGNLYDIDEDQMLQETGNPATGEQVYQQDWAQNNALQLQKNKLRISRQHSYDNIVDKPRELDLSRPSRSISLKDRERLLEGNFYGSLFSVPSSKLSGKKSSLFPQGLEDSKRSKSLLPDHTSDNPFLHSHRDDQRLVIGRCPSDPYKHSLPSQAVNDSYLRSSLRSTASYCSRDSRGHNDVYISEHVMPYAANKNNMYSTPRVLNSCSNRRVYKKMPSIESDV
# T1 sequence (P06276 29-602): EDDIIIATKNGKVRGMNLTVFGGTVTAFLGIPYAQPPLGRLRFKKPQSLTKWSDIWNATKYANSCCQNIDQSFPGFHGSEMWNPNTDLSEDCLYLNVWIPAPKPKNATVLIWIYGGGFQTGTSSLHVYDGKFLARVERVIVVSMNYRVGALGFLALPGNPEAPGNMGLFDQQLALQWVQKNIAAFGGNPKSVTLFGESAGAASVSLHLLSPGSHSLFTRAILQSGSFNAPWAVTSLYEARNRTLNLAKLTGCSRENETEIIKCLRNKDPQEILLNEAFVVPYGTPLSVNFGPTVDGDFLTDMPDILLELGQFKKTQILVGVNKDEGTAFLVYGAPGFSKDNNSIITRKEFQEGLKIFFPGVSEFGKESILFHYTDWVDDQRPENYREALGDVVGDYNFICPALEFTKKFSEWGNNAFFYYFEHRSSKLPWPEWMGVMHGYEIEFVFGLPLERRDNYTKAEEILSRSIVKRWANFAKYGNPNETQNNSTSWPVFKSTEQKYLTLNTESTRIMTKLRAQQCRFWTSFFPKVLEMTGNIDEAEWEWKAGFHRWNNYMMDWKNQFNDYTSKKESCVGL
# T3 sequence (P22303 32-614): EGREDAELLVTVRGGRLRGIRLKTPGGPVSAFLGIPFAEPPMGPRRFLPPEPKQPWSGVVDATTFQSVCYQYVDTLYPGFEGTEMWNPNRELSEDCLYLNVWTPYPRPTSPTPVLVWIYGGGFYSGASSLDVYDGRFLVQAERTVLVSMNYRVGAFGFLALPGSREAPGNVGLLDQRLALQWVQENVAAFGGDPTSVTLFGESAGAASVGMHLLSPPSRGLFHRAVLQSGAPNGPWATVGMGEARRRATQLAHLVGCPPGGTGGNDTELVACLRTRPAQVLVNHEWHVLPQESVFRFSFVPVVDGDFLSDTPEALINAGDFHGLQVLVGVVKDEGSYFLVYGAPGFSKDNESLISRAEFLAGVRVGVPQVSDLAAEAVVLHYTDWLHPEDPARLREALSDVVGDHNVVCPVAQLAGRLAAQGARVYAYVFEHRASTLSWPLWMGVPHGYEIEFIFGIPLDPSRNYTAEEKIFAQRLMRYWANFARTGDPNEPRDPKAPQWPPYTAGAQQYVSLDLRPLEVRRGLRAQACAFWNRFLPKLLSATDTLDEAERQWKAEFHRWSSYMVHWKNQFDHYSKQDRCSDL
Structure (SMILES),IC50 [1],inhibition at 3 µM (hGluN1/hGluN2B [2]),IC50 [3],RI (%) at 3 μM (hGluN1/hGluN2A [4]),inhibition at 3 µM (hGluN1/hGluN2A [5]),RI (%) at 3 μM (hGluN1/hGluN2B [6]),IC50 (hGluN1/hGluN2A [7]),IC50 (hGluN1/hGluN2B [8]),IC50 [9]
"CNC1c2ccccc2CCc2ccccc21 [3a, N-methyl-10,11-dihydro-5H-dibenzo[a,d][7]annulen-5-amine hydrochloride]",> 100 µM,71 ± 1.75%,> 100 µM,82.34 ± 3.25%,–,–,–,–,–
"CC(C)CNC1c2ccccc2CCc2ccccc21 [3f, N-isobutyl-10,11-dihydro-5H-dibenzo[a,d][7]annulen-5-amine hydrochloride]",> 100 µM,–,> 100 µM,–,76.8 ± 2.99%,91.62 ± 0.99%,–,–,–
"c1ccc2c(c1)CCc1ccccc1C2NC1CCCCC1 [3g, N-cyclohexyl-10,11-dihydro-5H-dibenzo[a,d][7]annulen-5-amine hydrochloride]",14.4 ± 1.3 µM,–,–,–,79.4 ± 2.06%,85.95 ± 3.13%,–,–,–
"OCCNC1c2ccccc2CCc2ccccc21 [3l, 2-((10,11-dihydro-5H-dibenzo[a,d][7]annulen-5-yl)amino)ethanol hydrochloride]",> 100 µM,49.7 ± 4.47%,> 100 µM,–,48 ± 5.18%,–,4.42 ± 0.9 µM,4.4 ± 0.42 µM,–
"CCCCNC1c2ccccc2C=Cc2ccccc21 [6e, N-butyl-5H-dibenzo[a,d][7]annulen-5-amine hydrochloride]",> 100 µM,79.2 ± 2.84%,> 100 µM,–,81.1 ± 2.62%,–,–,–,–
"CC(C)CNC1c2ccccc2C=Cc2ccccc21 [6f, N-isobutyl-5H-dibenzo[a,d][7]annulen-5-amine hydrochloride]",> 100 µM,91.77 ± 0.71%,> 100 µM,–,93.2 ± 1.11%,–,0.36 ± 0.06 µM,0.16 ± 0.01 µM,–
"C1=Cc2ccccc2C(NC2CCCCC2)c2ccccc21 [6g, N-cyclohexyl-5H-dibenzo[a,d][7]annulen-5-amine hydrochloride]",8.5 ± 0.4 µM,–,–,92.12 ± 1.48%,–,92.37 ± 1.82%,–,–,–
"C1=Cc2ccccc2C(N2CCCCC2)c2ccccc21 [6h, 1-(5H-dibenzo[a,d][7]annulen-5-yl)piperidine hydrochloride]",–,58.4 ± 4.37%,–,–,29.9 ± 2.73%,–,–,–,16.5 ± 0.9 µM
"C1=Cc2ccccc2C(N2CCOCC2)c2ccccc21 [6i, 4-(5H-dibenzo[a,d][7]annulen-5-yl)morpholine hydrochloride]",> 100 µM,57.6 ± 3.47%,> 100 µM,–,31.9 ± 4.16%,–,–,–,–
"COCCNC1c2ccccc2C=Cc2ccccc21 [6j, N-(2-methoxyethyl)-5H-dibenzo[a,d][7]annulen-5-amine hydrochloride]",> 100 µM,60 ± 4.39%,> 100 µM,–,35.6 ± 1.09%,–,–,–,–
"C1=Cc2ccccc2C(N2CCCC2)c2ccccc21 [6k, 1-(5H-dibenzo[a,d][7]annulen-5-yl)pyrrolidine hydrochloride]",> 100 µM,85.53 ± 0.21%,> 100 µM,–,48.6 ± 2.99%,–,–,–,–
"OCCNC1c2ccccc2C=Cc2ccccc21 [6l, 2-((5H-dibenzo[a,d][7]annulen-5-yl)amino)ethanol hydrochloride]",> 100 µM,48.8 ± 4.13%,> 100 µM,–,38.2 ± 3.8%,–,–,–,–
